According to publication PMC5054060, “Probing the nucleotide-binding activity of a redox sensor: two-component regulatory control in chloroplasts” (Photosynthesis Research, 2016):

Target: T1, CSK_T (truncated Arabidopsis CSK, amino acids 301 to 611) (Arabidopsis thaliana, UniProt F4HVG8)
T1 sequence (F4HVG8 301-611): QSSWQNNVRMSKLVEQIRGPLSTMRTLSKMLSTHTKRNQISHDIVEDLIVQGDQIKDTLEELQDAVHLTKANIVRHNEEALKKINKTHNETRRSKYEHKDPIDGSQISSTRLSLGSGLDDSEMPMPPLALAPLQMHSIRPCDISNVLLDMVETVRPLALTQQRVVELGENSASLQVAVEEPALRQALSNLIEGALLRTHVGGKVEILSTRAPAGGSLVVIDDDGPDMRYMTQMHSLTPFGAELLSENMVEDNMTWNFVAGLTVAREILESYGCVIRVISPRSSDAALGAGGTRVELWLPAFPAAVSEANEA
Experiment: displacement of TNP-ATP fluorescence, […] nm
Conditions: 10 mM NaCl, 10 mM Tris-HCl pH 8; 1 µM TNP-ATP; 2 µM protein (figure legend: 1 µM); competitive displacement, no metal added; read-out: Binding affinity / ATP (mm)

A Kd of 4.97 mM was found for `Nc1ncnc2c1ncn2[C@@H]1O[C@H](COP(=O)(O)OP(=O)(O)OP(=O)(O)O)[C@@H](O)[C@H]1O` [ATP] in this work.
